Test results taken from patent US6335339B1, “Triazine antiviral compounds” (Scriptgen Pharmaceuticals, Inc., priority 1998, dated 2002).

What was measured:
HBV εRNA = experiment: εRNA/oligonucleotide hybridization inhibition assay with rRNA competitor; type: binding, Hepatitis B virus; settings: for IC50: radiolabeled εRNA, 60-fold excess rRNA competitor; for Specificity: ratio RRE+rRNA IC50/εRNA+rRNA IC50, max = inactive in RRE assay
Text: One assay used in determining the activity of the compounds of the present invention is disclosed in copending U.S. patent application Ser. No. 08/709,342, filed Sep. 6, 1996, the disclosure of which is hereby incorporated herein by reference in its entirety. The assay detects the interaction between target RNA molecule and a test ligand by measuring the ligand's ability to inhibit hybridization between the RNA and a specific complementary oligonucleotide. In one embodiment, the target RNA is radiolabelled and the oligonucleotide is labeled with biotin; in this case, the extent of hybridization is determined by measuring the amount of radiolabeled RNA detected with a streptavidin/biotin-based capture system.
Concentrations of test compounds of between about 0.1 μM and about 200 μM are assayed for inhibition using radiolabeled εRNA in the absence or presence of a large excess of an unlabeled non-specific RNA competitor (such as, e.g., ribosomal RNA, rRNA). Compounds that bind εRNA non-specifically are competitively displaced by the rRNA, resulting in reduced or no inhibition of hybridization between the radiolabeled εRNA and the biotinylated oligonucleotide. Conversely, the inhibitory activity of compounds that specifically bind εRNA is not affected by the presence of the competitor rRNA.
The high throughput assays were performed in 96-well plates containing eighty drugs (5 μl, 60 μg/ml in DMSO) distributed one per well in columns 2-6 and 8-12 of the 8×12 96-well array. The remaining 16 wells in columns 1 and 7 were filled with 5 μl DMSO to serve as the control reactions. 45 μl of reaction mixture containing buffer, salts and radiolabeled target RNA were delivered on each well of the compound-containing plates to yield a 50 μl mixture containing 50 mM Tris-HCl, pH 7.5, 200 mM KCl, 5 mM MgCl2, 5 mM DTT, 6 μg/ml test compound, and 25 nM [^32 P]-labeled εRNA. The reaction was started by addition of the biotinylated oligonucleotide, 262.104 A (5 μl) to a final concentration of 100 nM. The reaction was incubated at 25° C. for 60 minutes, and then 5 μl of 0.3 mg/ml SAAP (streptavidin alkaline phosphatase conjugate, Pierce, Rockford, Ill.) was added. The reaction was incubated for an additional 30 minutes at 25° C. and filtered through 96-well format HATF nitrocellulose filters (Millipore, Bedford, Mass.) using a multiscreen vacuum manifold (Millipore, Bedford, Mass.). Subsequently, 300 μl of wash buffer (50 mM Tris-HCl, pH 7.5, 200 mM KCl) was filtered through to wash the filters. The filters were dried and supplemented with 20 μl scintillation fluid (Super Mix, Wallac Oy, Turku, Finland). The amount of hybrids formed was determined by scintillation counting of the radiolabeled εRNA retained on the filters.
The inhibitory effect of a test compound (expressed as percentage of inhibition, % Inh.) was calculated using the following formula: […]
where Ro is the average retention of hybrids in the 16 identical control reactions in columns 1 and 7 and Rx is the hybrids retained in the presence of a test drug, x.
(§1) Biotinylated oligonucleotides 262.104 A (5′-biotin-TTAGGCACAGCTTGGAGGCTTGAACAGTG-3′) and 208.92 A (5′-biotin-CGTCATTGACGCTGCGCCCA-3′) were synthetically prepared (Oligos Etc., Willsonville, Oreg.). These oligonucleotides are complementary to regions of the εRNA and RRE RNA targets, respectively.
A plasmid containing the target sequence following the bacteriophage SP6 promoter was used as a template for the synthesis of radiolabeled εRNA using [α^32 P]-UTP and SP6 RNA polymerase as described by the suppliers, e.g., Ambion, Austin, Tex., and by methods well known to those of ordinary skill in the art.
Compounds that inhibited the primary screening assay described above were individually titrated in the same assay at concentrations between 0.1 μM and 200 μM in the absence and presence of 60-fold excess rRNA as a non-specific competitor. […]

HIV derived RRE RNA = experiment: heterologous hybridization inhibition assay with RRE RNA; type: binding; settings: radiolabeled RRE RNA, rRNA competitor
Text: Specificity is further tested in a third assay in which the radiolabeled RNA is the HIV derived RRE RNA and the biotinylated oligonucleotide is complementary to RRE. Compounds with high specific activity for εRNA are not expected to be inhibitory in the RRE RNA based assay. The specificity of the ligand for εRNA is expressed as the ratio between the IC50 value obtained with the specific target RNA and the IC50 value obtained with a heterologous target (RRE RNA), both in the presence of competitor RNA.
as §1
Compounds that inhibited the primary screening assay described above were individually titrated in the same assay at concentrations between 0.1 μM and 200 μM in the absence and presence of 60-fold excess rRNA as a non-specific competitor. A third titration was performed in a heterologous assay using radiolabeled RRE RNA as the target and the complementary biotinylated oligonucleotide 208.92 A. From these three assays, the IC50 values and specificity for each compound was calculated.
IC50 values using rRNA competitor (from Example 1) and radiolabeled RRE RNA are shown in Table 1 for the following ligands. […] Specificity is calculated as the ratio of RRE+rRNA IC50/εRNA+rRNA IC50.

SMILES | IC50 (HBV εRNA) [µM] | Specificity (HBV εRNA) | IC50 (HIV derived RRE RNA) [µM] | RRE + rRNA IC50 (μM) (HIV derived RRE RNA)
CCN(CC)c1nc(NN=CC=Cc2ccccc2)nc(Nc2ccc([N+](=O)[O-])cc2)n1 [Compound 132] | 70.1 | 11.4 | 800 | 
O=[N+]([O-])c1ccc(Nc2nc(NN=Cc3ccc(-c4ccc([N+](=O)[O-])cc4)o3)nc(Nc3ccccc3)n2)cc1 [Compound 144] | 1000 | 0.1 | 99.9 | 
O=C(C(=NNc1nc(NCc2ccccc2)nc(Nc2ccc([N+](=O)[O-])cc2)n1)c1ccccc1)c1ccccc1 [Compound 131] | 36.7 | 1.0 | 36.7 | 
CC(=NNc1nc(Nc2ccc([N+](=O)[O-])cc2)nc(N2CCCCC2)n1)c1ccccc1 [Compound 151] | 200 | 3.5 | 700 | 
Cc1[nH]c2ccccc2c1C=NNc1nc(Nc2ccc([N+](=O)[O-])cc2)nc(N2CCOCC2)n1 [Compound 128] | 22 | 4.5 | 99.9 | 
Oc1ccc(C=NNc2nc(Nc3ccccc3)nc(N3CCCC3)n2)c(O)c1 [Compound 119] | 35 | 7.1 | 250 | 
CCCCN(CCCC)c1nc(NN=Cc2c(C)[nH]c3ccccc23)nc(Nc2ccc([N+](=O)[O-])cc2)n1 [Compound 60] | 100 | max. |  | inactive
Clc1ccccc1C=NNc1nc(Nc2ccccc2)nc(N2CCOCC2)n1 [Compound 73] | 120 | max. |  | inactive
CCCCN(CCCC)c1nc(NN=Cc2ccccc2OC)nc(Nc2ccc([N+](=O)[O-])cc2)n1 [Compound 86] | 200 | max. |  | inactive
Cc1cc(I)cc(C=NNc2nc(Nc3ccc([N+](=O)[O-])cc3)nc(N3CCCCC3)n2)c1O [Compound 109] | 20 | 1.8 | 35 | 
CCCCN(CCCC)c1nc(NN=Cc2cccc(Br)c2)nc(Nc2ccc([N+](=O)[O-])cc2)n1 [Compound 83] | 185 | max. |  | inactive
COc1ccc([N+](=O)[O-])cc1C=NNc1nc(NCc2ccccc2)nc(Nc2ccccc2)n1 [Compound 54] | 89.9 | max. |  | inactive
Cc1ccc(Nc2nc(NN=Cc3ccc(Br)cc3)nc(Nc3ccccc3)n2)c(C)c1 [Compound 59] | 90.1 | max. |  | inactive
O=[N+]([O-])c1ccc(Nc2nc(N/N=C/c3ccccc3)nc(N3CCCCCC3)n2)cc1 [Compound 80] | 200 | max. |  | inactive
Cc1[nH]c2ccccc2c1C=NNc1nc(Nc2ccc([N+](=O)[O-])cc2)nc(N2CCCCCC2)n1 [Compound 92] | 2.5 | 4.0 | 10.1 | 
O=[N+]([O-])c1ccc(Nc2nc(NN=Cc3ccc(O)c([N+](=O)[O-])c3)nc(N3CCOCC3)n2)cc1 [Compound 152] | 300 | 0.5 | 150 | 

SMILES | IC50 (HBV εRNA) [µM] | Specificity (HBV εRNA) | IC50 (HIV derived RRE RNA) [µM] | RRE + rRNA IC50 (μM) (HIV derived RRE RNA)
O=[N+]([O-])c1cccc(C=NNc2nc(Nc3cccc4ccccc34)nc(N3CCOCC3)n2)c1O [Compound 64] | 71.9 | max. |  | inactive
C(=N\Nc1nc(Nc2ccccc2)nc(N2CCOCC2)n1)/c1c[nH]c2ccccc12 [Compound 79] | 169 | max. |  | inactive
CCCCN(CCCC)c1nc(NN=C(C)c2ccc([N+](=O)[O-])cc2)nc(Nc2ccc([N+](=O)[O-])cc2)n1 [Compound 82] | 150 | max. |  | inactive
CCCCN(CCCC)c1nc(NN=Cc2ccc(O)c(O)c2)nc(Nc2ccc([N+](=O)[O-])cc2)n1 [Compound 26] | 15 | max. |  | inactive
CN1CCN(c2nc(NN=Cc3cccc(Br)c3)nc(Nc3ccc([N+](=O)[O-])cc3)n2)CC1 [Compound 95] | 13.7 | 2.8 | 39 | 
CCOc1ccc(C=NNc2nc(Nc3ccc([N+](=O)[O-])cc3)nc(N3CCCCC3)n2)cc1O [Compound 129] | 25 | 4.8 | 120 | 
COc1ccc(/C=N/Nc2nc(Nc3ccc([N+](=O)[O-])cc3)nc(N3CCOCC3)n2)cc1 [Compound 75] | 160 | max. |  | inactive
C(=NNc1nc(NCc2ccccc2)nc(Nc2ccccc2)n1)c1ccccc1 [Compound 84] | 120 | max. |  | inactive
Cc1ccc(C=NNc2nc(Nc3ccccc3)nc(Nc3ccc([N+](=O)[O-])cc3)n2)cc1 [Compound 66] | 114 | max. |  | inactive
Cc1ccc(Nc2nc(NN=Cc3ccc(-c4cccc(C(=O)O)c4)o3)nc(Nc3ccc([N+](=O)[O-])cc3)n2)cc1C [Compound 76] | 200 | max. |  | inactive
O=[N+]([O-])c1ccc(Nc2nc(NN=Cc3cccc(Br)c3)nc(N3CCCCCC3)n2)cc1 [Compound 45] | 39.9 | max. |  | inactive
Brc1cc2c(cc1C=NNc1nc(Nc3ccccc3)nc(N3CCCCC3)n1)OCO2 [Compound 70] | 80.6 | max. |  | inactive
O=[N+]([O-])c1ccc(Nc2nc(NN=Cc3cc(Cl)ccc3O)nc(N3CCOCC3)n2)cc1 [Compound 106] | 12.1 | 5.8 | 70.1 | 
O=[N+]([O-])c1ccc(Nc2nc(NN=Cc3cc(Br)ccc3O)nc(N3CCOCC3)n2)cc1 [Compound 107] | 14.9 | 1.7 | 25 | 
O=[N+]([O-])c1ccc(Nc2nc(NN=Cc3c[nH]c4ccccc34)nc(N3CCCCCC3)n2)cc1 [Compound 87] | 8.1 | 37.0 | 300 | 
